Activity calls are given as the source filed them. The calls are words filed in the database; no cut-off is given here.
These compounds were tested on Mus musculus (assay: Ability to abolish the hindlimb tonic extensor components of a maximal electroshock-induced seizure in vivo at 10 mg/kg).
Assay type: functional
With `COC(=O)c1ccsc1N1N=C(c2ccc(N)cc2)c2cc3c(cc2C[C@H]1C)OCO3` the Protection was 40%.
For `C[C@@H]1Cc2cc3c(cc2C(c2ccc(N)cc2)=NN1c1nc2ccccc2s1)OCO3`, the Protection was 80%.

These compounds were tested on Mus musculus (assay: Ability to abolish the hindlimb tonic extensor components of a maximal electroshock-induced seizure in vivo; NA means Not active at 10 mg/kg).
Assay type: functional, organism-based
Parameters: dose 10 mg/kg
`C[C@@H]1Cc2cc3c(cc2C(c2ccccc2)=NN1c1ccccn1)OCO3` was tested, and the ED50 was “inactive”.
`C[C@@H]1Cc2cc3c(cc2C(c2ccc(I)cc2)=NN1c1ccccn1)OCO3` was tested, and the ED50 was “inactive”.
For `C[C@@H]1Cc2cc3c(cc2C(c2ccc(N)cc2)=NN1c1cccc2ccccc12)OCO3`, the ED50 was “inactive”.
`C[C@@H]1Cc2cc3c(cc2C(c2ccc(Cl)cc2)=NN1c1ccccn1)OCO3` was tested, and the ED50 was “inactive”.

What follows are compounds tested on Mus musculus (assay: Ability to abolish the hindlimb tonic extensor components of a maximal electroshock-induced seizure in vivo at 5 mg/kg; None mice protected).
Assay type: functional
`C[C@@H]1Cc2cc3c(cc2C(c2ccc(N)cc2)=NN1c1nc2ccccc2s1)OCO3` was tested, and the Protection was 0%.

The compounds below were run on Mus musculus (assay: Ability to abolish the hindlimb tonic extensor components of a maximal electroshock-induced seizure in vivo).
Assay type: functional
With `C[C@@H]1Cc2cc3c(cc2C(c2ccc(N)cc2)=NN1c1nncc2ccccc12)OCO3` the ED50 was 7.8 mg/kg.
For `C[C@@H]1Cc2cc3c(cc2C(c2ccc(N)cc2)=NN1c1nc2ccccc2[nH]1)OCO3`, the ED50 was 3.2 mg/kg.
With `C[C@@H]1Cc2cc3c(cc2C(c2ccc(N)cc2)=NN1c1ccccn1)OCO3` the ED50 was 0.76 mg/kg.
`C[C@@H]1Cc2cc3c(cc2C(c2ccc(N)cc2)=NN1c1nc2ccccc2s1)OCO3` showed an ED50 of 5 mg/kg.
Compound `C[C@@H]1Cc2cc3c(cc2C(c2ccc(N)cc2)=NN1c1ccccc1)OCO3` has an ED50 of 1.47 mg/kg.
`CC(=O)N1N=C(c2ccc(N)cc2)c2cc3c(cc2C[C@H]1C)OCO3` [TALAMPANEL] was tested, and the ED50 was 0.48 mg/kg.

Each compound was assayed on Mus musculus (assay: Ability to abolish the hindlimb tonic extensor components of a maximal electroshock-induced seizure in vivo; NA means Not active).
Assay type: functional, organism-based
`C[C@@H]1Cc2cc3c(cc2C(c2ccc(N)cc2)=NN1c1nccc(C(F)(F)F)n1)OCO3` was tested, and the ED50 was “inactive”.
`C[C@@H]1Cc2cc3c(cc2C(c2ccc(N)cc2)=NN1c1ccc2ccccc2n1)OCO3` was tested, and the ED50 was “inactive”.

From ChEMBL document CHEMBL1131789, “Synthesis and anticonvulsant activity of 3-aryl-5H-2,3-benzodiazephine AMPA antagonists” (1999)
